Measured values reported in US11065257B2, “Substituted pyrazoloazepin-4-ones and their use as phosphodiesterase inhibitors” (LEO Pharma A/S, priority 2016, dated 2021).
pIC50: −log10 of the molar value.

target: T1, human PDE4D catalytic domain (Homo sapiens, UniProt Q08499); experiment: PDE4 Assay; assay type: biochemical; conditions: human PDE4D catalytic domain (S380-L740), TR-FRET with FAM-cAMP; expressed as a range of IC50; read-out: PDE4 Potency Range
T1 construct: UniProt no; Q08499 [S380-L740]
Procedure: The human PDE4D catalytic domain (UniProt no. Q08499 [S380-L740]) was incubated with a mixture of non-labelled cAMP (cyclic adenosine monophosphate) and fluorescein amidite (FAM) conjugated cAMP and titrated test or reference compound. Following brief incubation the enzymatic reaction was stopped by addition of binding buffer containing nanoparticles with immobilized trivalent metal ions capable of binding 1) AMP phospho groups and 2) terbium (Tb) donor fluorophores. Subsequent excitation of the Tb donor triggers time-resolved FRET to adjacent FAM acceptor molecules resulting in light emission. In the presence of a PDE4 inhibitor, AMP generation was reduced resulting in a lower fluorescence signal. The cAMP phosphodiester is not bound by the detection system.
The results were calculated as the molar concentrations resulting in 50% inhibition of the substrate cleavage compared to controls samples, and are expressed as a range of IC50 (nM).

T1 sequence (Q08499 380-740): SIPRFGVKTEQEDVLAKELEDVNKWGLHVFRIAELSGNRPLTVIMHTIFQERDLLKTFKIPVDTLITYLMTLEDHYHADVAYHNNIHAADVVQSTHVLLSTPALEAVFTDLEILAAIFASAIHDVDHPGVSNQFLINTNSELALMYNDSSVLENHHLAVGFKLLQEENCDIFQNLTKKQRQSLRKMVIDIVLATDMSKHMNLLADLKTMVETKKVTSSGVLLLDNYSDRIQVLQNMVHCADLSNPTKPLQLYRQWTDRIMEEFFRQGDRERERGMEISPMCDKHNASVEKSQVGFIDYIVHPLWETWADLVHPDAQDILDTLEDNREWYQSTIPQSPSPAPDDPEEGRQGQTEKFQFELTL

Compound	pIC50
CCc1nn(CCCOC(=O)C2CCN(C(=O)OC)CC2)c2c1C(=O)NCC1(CCOCC1)C2 [Example 105, O4-[3-(3-ethyl-4-oxo-spiro[6,8-dihydro-5H-pyrazolo[4,3-c]azepine-7,4′-tetrahydropyran]-1-yl)propyl] O1-methyl piperidine-1,4-dicarboxylate]	6.30 to 7.00
CCc1nn(CCCOC(=O)C2CCCN(C(=O)N(C)C)C2)c2c1C(=O)NCC1(CCOCC1)C2 (stereo not drawn) [Example 106, 3-(3-ethyl-4-oxo-spiro[6,8-dihydro-5H-pyrazolo[4,3-c]azepine-7,4′-tetrahydropyran]-1-yl)propyl 1-(dimethylcarbamoyl)piperidine-3-carboxylate]	6.30 to 7.00
CCc1nn(CCCOC(=O)c2ccc(C)nc2C)c2c1C(=O)NCC1(CCOCC1)C2 [Example 87, 3-(3-ethyl-4-oxo-spiro[6,8-dihydro-5H-pyrazolo[4,3-c]azepine-7,4′-tetrahydropyran]-1-yl)propyl 2,6-dimethylpyridine-3-carboxylate]	> 7.00
CCc1nn(CCCOC(=O)c2c(C)nn(C)c2C)c2c1C(=O)NCC1(CCOCC1)C2 [Example 91, 3-(3-ethyl-4-oxo-spiro[6,8-dihydro-5H-pyrazolo[4,3-c]azepine-7,4′-tetrahydropyran]-1-yl)propyl 1,3,5-trimethylpyrazole-4-carboxylate]	6.30 to 7.00
CCc1nn(CCCOC(=O)c2ccon2)c2c1C(=O)NCC1(CCOCC1)C2 [Example 21, 3-(3-ethyl-4-oxo-spiro[6,8-dihydro-5H-pyrazolo[4,3-c]azepine-7,4′-tetrahydropyran]-1-yl)propyl isoxazole-3-carboxylate]	< 6.30
CCc1nn(CCCOC(=O)C2CCCS(=O)(=O)C2)c2c1C(=O)NCC1(CCOCC1)C2 (stereo not drawn) [Example 102, 3-(3-ethyl-4-oxo-spiro[6,8-dihydro-5H-pyrazolo[4,3-c]azepine-7,4′-tetrahydropyran]-1-yl)propyl 1,1-dioxothiane-3-carboxylate]	< 6.30
CCc1nn(CCCOC(=O)c2ccnc(C)n2)c2c1C(=O)NCC1(CCOCC1)C2 [Example 68, 3-(3-ethyl-4-oxo-spiro[6,8-dihydro-5H-pyrazolo[4,3-c]azepine-7,4′-tetrahydropyran]-1-yl)propyl 2-methylpyrimidine-4-carboxylate]	< 6.30
CCc1nn(CCCOC(=O)c2cnc(C)nc2)c2c1C(=O)NCC1(CCOCC1)C2 [Example 70, 3-(3-ethyl-4-oxo-spiro[6,8-dihydro-5H-pyrazolo[4,3-c]azepine-7,4′-tetrahydropyran]-1-yl)propyl 2-methylpyrimidine-5-carboxylate]	6.30 to 7.00
CCc1nn(CCCOC(=O)C2CCSCC2)c2c1C(=O)NCC1(CCOCC1)C2 [Example 85, 3-(3-ethyl-4-oxo-spiro[6,8-dihydro-5H-pyrazolo[4,3-c]azepine-7,4′-tetrahydropyran]-1-yl)propyl tetrahydrothiopyran-4-carboxylate]	6.30 to 7.00
CCc1nn(CCCOC(=O)c2cc(C)nn2C)c2c1C(=O)NCC1(CCOCC1)C2 [Example 71, 3-(3-ethyl-4-oxo-spiro[6,8-dihydro-5H-pyrazolo[4,3-c]azepine-7,4′-tetrahydropyran]-1-yl)propyl 2,5-dimethylpyrazole-3-carboxylate]	6.30 to 7.00
CCc1nn(CCCOC(=O)c2cccnc2C)c2c1C(=O)NCC1(CCOCC1)C2 [Example 65, 3-(3-ethyl-4-oxo-spiro[6,8-dihydro-5H-pyrazolo[4,3-c]azepine-7,4′-tetrahydropyran]-1-yl)propyl 2-methylpyridine-3-carboxylate]	6.30 to 7.00
CCc1nn(CCOC(=O)Cc2csc(C)n2)c2c1C(=O)NCC1(CCOCC1)C2 [Example 15, 2-(3-ethyl-4-oxo-spiro[6,8-dihydro-5H-pyrazolo[4,3-c]azepine-7,4′-tetrahydropyran]-1-yl)ethyl 2-(2-methylthiazol-4-yl)acetate]	< 6.30
CCc1nn(CCOC(=O)c2nc(C)cs2)c2c1C(=O)NCC1(CCOCC1)C2 [Example 14, 2-(3-ethyl-4-oxo-spiro[6,8-dihydro-5H-pyrazolo[4,3-c]azepine-7,4′-tetrahydropyran]-1-yl)ethyl 4-methylthiazole-2-carboxylate]	6.30 to 7.00
CCc1nn(CCCOC(=O)C2CCCOC2)c2c1C(=O)NCC1(CCOCC1)C2 (stereo not drawn) [Example 58, 3-(3-ethyl-4-oxo-spiro[6,8-dihydro-5H-pyrazolo[4,3-c]azepine-7,4′-tetrahydropyran]-1-yl)propyl tetrahydropyran-3-carboxylate]	< 6.30
CCc1nn(CCCOC(=O)c2cnon2)c2c1C(=O)NCC1(CCOCC1)C2 [Example 27, 3-(3-ethyl-4-oxo-spiro[6,8-dihydro-5H-pyrazolo[4,3-c]azepine-7,4′-tetrahydropyran]-1-yl)propyl 1,2,5-oxadiazole-3-carboxylate]	6.30 to 7.00
CCc1nn(CCCOC(=O)c2ccc3ncn(C)c3c2)c2c1C(=O)NCC1(CCOCC1)C2 [Example 101, 3-(3-ethyl-4-oxo-spiro[6,8-dihydro-5H-pyrazolo[4,3-c]azepine-7,4′-tetrahydropyran]-1-yl)propyl 3-methylbenzimidazole-5-carboxylate]	> 7.00
CCc1nn(CCOC(=O)c2cnc(C)o2)c2c1C(=O)NCC1(CCOCC1)C2 [Example 6, 2-(3-ethyl-4-oxo-spiro[6,8-dihydro-5H-pyrazolo[4,3-c]azepine-7,4′-tetrahydropyran]-1-yl)ethyl 2-methyloxazole-5-carboxylate]	< 6.30
CCc1nn(CCCOC(=O)c2ccns2)c2c1C(=O)NCC1(CCOCC1)C2 [Example 54, 3-(3-ethyl-4-oxo-spiro[6,8-dihydro-5H-pyrazolo[4,3-c]azepine-7,4′-tetrahydropyran]-1-yl)propyl isothiazole-5-carboxylate]	6.30 to 7.00
CCc1nn(CCCOC(=O)c2cc(C)ns2)c2c1C(=O)NCC1(CCOCC1)C2 [Example 78, 3-(3-ethyl-4-oxo-spiro[6,8-dihydro-5H-pyrazolo[4,3-c]azepine-7,4′-tetrahydropyran]-1-yl)propyl 3-methylisothiazole-5-carboxylate]	6.30 to 7.00
CCc1nn(CCCOC(=O)c2ccn(C)n2)c2c1C(=O)NCC1(CCOCC1)C2 [Example 32, 3-(3-ethyl-4-oxo-spiro[6,8-dihydro-5H-pyrazolo[4,3-c]azepine-7,4′-tetrahydropyran]-1-yl)propyl 1-methylpyrazole-3-carboxylate]	< 6.30
CCc1nn(CCCOC(=O)c2cnc(C)o2)c2c1C(=O)NCC1(CCOCC1)C2 [Example 48, 3-(3-ethyl-4-oxo-spiro[6,8-dihydro-5H-pyrazolo[4,3-c]azepine-7,4′-tetrahydropyran]-1-yl)propyl 2-methyloxazole-5-carboxylate]	6.30 to 7.00
CCc1nn(CCCOC(=O)c2ccsn2)c2c1C(=O)NCC1(CCOCC1)C2 [Example 53, 3-(3-ethyl-4-oxo-spiro[6,8-dihydro-5H-pyrazolo[4,3-c]azepine-7,4′-tetrahydropyran]-1-yl)propyl isothiazole-3-carboxylate]	6.30 to 7.00
CCc1nn(CCCOC(=O)c2nnc(C)[nH]2)c2c1C(=O)NCC1(CCOCC1)C2 [Example 50, 3-(3-ethyl-4-oxo-spiro[6,8-dihydro-5H-pyrazolo[4,3-c]azepine-7,4′-tetrahydropyran]-1-yl)propyl 5-methyl-4H-1,2,4-triazole-3-carboxylate]	< 6.30
CCc1nn(CCCOC(=O)c2cccnn2)c2c1C(=O)NCC1(CCOCC1)C2 [Example 29, 3-(3-ethyl-4-oxo-spiro[6,8-dihydro-5H-pyrazolo[4,3-c]azepine-7,4′-tetrahydropyran]-1-yl)propyl pyridazine-3-carboxylate]	< 6.30
CCc1nn(CCCOC(=O)c2cc(C)nc(C)c2)c2c1C(=O)NCC1(CCOCC1)C2 [Example 86, 3-(3-ethyl-4-oxo-spiro[6,8-dihydro-5H-pyrazolo[4,3-c]azepine-7,4′-tetrahydropyran]-1-yl)propyl 2,6-dimethylpyridine-4-carboxylate]	6.30 to 7.00
CCc1nn(CCOC(=O)Cc2cccn2C)c2c1C(=O)NCC1(CCOCC1)C2 [Example 9, 2-(3-ethyl-4-oxo-spiro[6,8-dihydro-5H-pyrazolo[4,3-c]azepine-7,4′-tetrahydropyran]-1-yl)ethyl 2-(1-methylpyrrol-2-yl)acetate]	< 6.30
CCc1nn(CCOC(=O)c2cc(C)ns2)c2c1C(=O)NCC1(CCOCC1)C2 [Example 13, 2-(3-ethyl-4-oxo-spiro[6,8-dihydro-5H-pyrazolo[4,3-c]azepine-7,4′-tetrahydropyran]-1-yl)ethyl 3-methylisothiazole-5-carboxylate]	6.30 to 7.00
CCc1nn(CCOC(=O)Cc2cc(C)on2)c2c1C(=O)NCC1(CCOCC1)C2 [Example 11, 2-(3-ethyl-4-oxo-spiro[6,8-dihydro-5H-pyrazolo[4,3-c]azepine-7,4′-tetrahydropyran]-1-yl)ethyl 2-(5-methylisoxazol-3-yl)acetate]	< 6.30
CCc1nn(C[C@@H](C)COC(=O)C2CCOCC2)c2c1C(=O)NCC1(CCOCC1)C2 [Example 109, [(2R)-3-(3-ethyl-4-oxo-spiro[6,8-dihydro-5H-pyrazolo[4,3-c]azepine-7,4′-tetrahydropyran]-1-yl)-2-methyl-propyl] tetrahydropyran-4-carboxylate]	> 7.00
CCc1nn(CCOC(=O)C2CCOCC2)c2c1C(=O)NCC1(CCOCC1)C2 [Example 8, 2-(3-ethyl-4-oxo-spiro[6,8-dihydro-5H-pyrazolo[4,3-c]azepine-7,4′-tetrahydropyran]-1-yl)ethyl tetrahydropyran-4-carboxylate]	< 6.30
